In patent US11401277B2, “Anti-bacterial heterocyclic compounds and their synthesis” (Bugworks Research, Inc., priority 2017, dated 2022):
Converted amounts (≈) assume the structure as drawn. “And” between values parts separate entries of the source, which are not always exact repeats. Identical values can stand only once. Like-named read-outs stand apart in the source and are kept apart here.

Assays:
[1] = target: T1, hERG potassium channel (Homo sapiens, UniProt Q12809); assay: hERG inhibition assay, QPatch HTX automated electrophysiology; assay type: cell-based; conditions: CHO cell line expressing hERG; whole-cell patch clamp, room temperature
T1 construct: Chinese Hamster Ovary cell line stably expressing the full-length hERG potassium channel; expressed in transfected cells
Protocol: The compounds were tested for inhibition of the human ether a go-go related gene (hERG) K+ channel using QPatch HTX automated electrophysiology.
Compounds of Formula I were solubilised to 100 mM in DMSO before dilution in HBPS to 300 μM.
Electrophysiological recordings were made from a Chinese Hamster Ovary cell line stably expressing the full-length hERG potassium channel. Single cell ionic currents were measured in whole-cell patch clamp configuration at room temperature (21-23° C.) using the QPatch HTX platform (Sophion). Intracellular solution contained (mM): 120 KF, 20 KCl, 10 EGTA, 10 HEPES and was buffered to pH 7.3. […] Cells were clamped at a holding potential of −80 mV. Cells were stepped to +20 mV for 2 s then −40 mV for 3 s before returning to the holding potential. This sweep was repeated 10 times at 10 s intervals. hERG currents were measured from the tail step and referenced to the holding current. Compounds were then incubated for 2 minutes prior to a second measurement of ion channel current using an identical pulse train.

[2] = tested on: E. coli [ATCC25922]; assay: Neutropenic Thigh Infection Model in Rat, E. coli; assay type: in vivo; conditions: for MEAN ± SD (Log10 CFU/g thigh) / Mean Log 10 CFU/thigh reduction (wrt 2 h PI control: 5.04 Log10CFU/g thigh) / Log10 CFU/g thigh: i.v., 1 h infusion; for Log10 CFU/g thigh: individual animals, 10 hr post infection
[3] = tested on: E. cloacae clinical strains; assay: Susceptibility (MIC50 and MIC90 determination) studies, clinical strains; assay type: cell-based; conditions: CLSI
[4] = IV Formulation solubility; assay type: physicochemical; conditions: 10% L-ascorbic acid in MilliQ water, 37 °C, pH 2.8, aqueous with cosolvent or surfactant or cyclodextrin, thermodynamic from solid, 1N NaOH for pH adjustment, read-out: Solubility in 10% L-ascorbic acid in fresh MilliQ water(v/v), Final pH~2.8
Protocol: Procedure: Weighed appropriate amount of the Compound 2 to be tested and dissolved in 1 ml of the 10% ascorbic acid solution. (Vortex for a few seconds if the compound doesn't dissolve instantly). Sonicated the compound solution at 37° C. for 5 minutes using a bath sonicator to obtain a visually clear solution. […]

[5] = tested on: P. aurigenosa clinical strains; assay: Susceptibility (MIC50 and MIC90 determination) studies, clinical strains; assay type: cell-based; conditions: CLSI
[6] = tested on: A. baumanni clinical strains; assay: as above; assay type: cell-based; conditions: CLSI
[7] = In vivo pharmacokinetic (PK) studies in rats; parameters: species or system Sprague-Dawley (SD) rats; conditions: for Cmax / Vd / bioavailability / AUC(0-inf) / AUC(0-t) / Tmax / half-life / clearance: Sprague-Dawley, rat, plasma; for Vd: iv; for bioavailability: po, read-out: Bioavailability* (F, %); for clearance: read-out: CLp (converted)
[8] = tested on: K. pneumoniae clinical strains; assay: Susceptibility (MIC50 and MIC90 determination) studies, clinical strains; assay type: cell-based; conditions: CLSI
[9] = tested on: clinical strains of five Gram-negative bacterial species; assay: Antibacterial susceptibility studies, overall statement; assay type: cell-based; conditions: range over 5 Gram-negative species
Excerpt: The standard drugs ciprofloxacin and meropenem were used as positive controls in the study.

[10] = Klebsiella pneumoniae, Kpn clinical strains

T1 sequence (Q12809 whole entry): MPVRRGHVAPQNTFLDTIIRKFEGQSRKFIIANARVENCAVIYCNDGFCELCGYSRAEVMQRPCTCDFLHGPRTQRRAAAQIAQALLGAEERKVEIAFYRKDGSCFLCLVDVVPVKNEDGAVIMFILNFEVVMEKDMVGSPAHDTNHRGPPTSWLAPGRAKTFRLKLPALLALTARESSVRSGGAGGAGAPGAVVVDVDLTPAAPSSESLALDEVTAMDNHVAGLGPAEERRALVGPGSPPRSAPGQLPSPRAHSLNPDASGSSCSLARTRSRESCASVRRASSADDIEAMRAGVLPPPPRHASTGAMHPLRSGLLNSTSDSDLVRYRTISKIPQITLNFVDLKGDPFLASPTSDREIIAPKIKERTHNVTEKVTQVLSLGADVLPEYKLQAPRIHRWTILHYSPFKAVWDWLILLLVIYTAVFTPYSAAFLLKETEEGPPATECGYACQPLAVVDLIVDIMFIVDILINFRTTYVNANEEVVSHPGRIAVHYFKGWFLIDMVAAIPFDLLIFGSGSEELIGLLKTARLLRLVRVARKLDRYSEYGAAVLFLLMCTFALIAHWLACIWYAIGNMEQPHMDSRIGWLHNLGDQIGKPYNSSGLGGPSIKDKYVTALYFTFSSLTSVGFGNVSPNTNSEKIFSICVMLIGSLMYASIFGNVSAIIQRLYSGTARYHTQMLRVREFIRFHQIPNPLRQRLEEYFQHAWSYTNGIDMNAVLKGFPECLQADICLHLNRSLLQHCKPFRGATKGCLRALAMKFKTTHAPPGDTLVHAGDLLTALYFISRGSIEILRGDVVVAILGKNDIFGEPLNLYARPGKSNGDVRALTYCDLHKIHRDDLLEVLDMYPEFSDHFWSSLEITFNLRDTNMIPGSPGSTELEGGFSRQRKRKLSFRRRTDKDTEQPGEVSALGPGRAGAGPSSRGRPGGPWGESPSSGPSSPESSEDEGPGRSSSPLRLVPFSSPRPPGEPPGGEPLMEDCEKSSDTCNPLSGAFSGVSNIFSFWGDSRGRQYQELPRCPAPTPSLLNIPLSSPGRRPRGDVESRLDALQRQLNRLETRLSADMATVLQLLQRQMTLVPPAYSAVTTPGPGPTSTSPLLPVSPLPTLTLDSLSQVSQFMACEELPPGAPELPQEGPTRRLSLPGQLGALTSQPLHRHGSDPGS

Cn1c(=O)ccc2ccc(F)c(OCCNC[C@H]3CN(c4cnc5c(n4)NC(=O)CO5)C(=O)O3)c21 [Compound 2, (S)-6-(5-(((2-((7-fluoro-1-methyl-2-oxo-1,2-dihydroquinolin-8-yl)oxy)ethyl)amino)methyl)-2-oxooxazolidin-3-yl)-2H-pyrazino[2,3-b][1,4]oxazin-3(4H)-one]
IC50 [1]: 124 µM
MEAN ± SD (Log10 CFU/g thigh) ([2]; 3 mg/kg): 5.08 ± 0.39 Log10 CFU/g thigh
Mean Log 10 CFU/thigh reduction (wrt 2 h PI control: 5.04 Log10CFU/g thigh) ([2]; 3 mg/kg): 0.77 Log 10 CFU/thigh
Log10 CFU/g thigh ([2]; 3 mg/kg): 5.37 Log10 CFU/g thigh and 4.64 Log10 CFU/g thigh and 5.23 Log10 CFU/g thigh
MEAN ± SD (Log10 CFU/g thigh) ([2]; 10 mg/kg): 4.41 ± 0.18 Log10 CFU/g thigh
Mean Log 10 CFU/thigh reduction (wrt 2 h PI control: 5.04 Log10CFU/g thigh) ([2]; 10 mg/kg): 1.44 Log 10 CFU/thigh
Log10 CFU/g thigh ([2]; 10 mg/kg): 4.44 Log10 CFU/g thigh and 4.57 Log10 CFU/g thigh and 4.21 Log10 CFU/g thigh
MEAN ± SD (Log10 CFU/g thigh) ([2]; 30 mg/kg): 2.83 ± 0.35 Log10 CFU/g thigh
Mean Log 10 CFU/thigh reduction (wrt 2 h PI control: 5.04 Log10CFU/g thigh) ([2]; 30 mg/kg): 3.02 Log 10 CFU/thigh
Log10 CFU/g thigh ([2]; 30 mg/kg): 2.66 Log10 CFU/g thigh and 2.6 Log10 CFU/g thigh and 3.24 Log10 CFU/g thigh
efficacy with respect to 2 h Post Infection (PI) control (in words) ([2]; 3, 10 and 30 mg/kg, rat thigh E. coli): significant dose dependent bactericidal efficacy
Minimum (MIC) ([3]; MIC50/MIC90 in μg/ml): 0.03 µg/mL
MIC50 ([3]; Enterobacter cloacae): 0.125 µg/mL (≈ 0.258 µM)
MIC90 ([3]; Enterobacter cloacae): 0.25 µg/mL (≈ 0.516 µM)
solubility at 5 min [4]: 15 mg/mL (≈ 31000 µM)
MIC50 ([5]; Pae clinical strains): 1 µg/mL (≈ 2.06 µM)
MIC90 ([5]; Pae clinical strains): 1 µg/mL (≈ 2.06 µM)
Minimum (MIC) ([5]; Pae clinical strains, MIC50/MIC90 in μg/ml): 0.031 µg/mL
MIC ATCC27853 ([5]; Pae reference strain ATCC27853, MIC50/MIC90 in μg/ml): 0.5 µg/mL (≈ 1.03 µM)
MIC50 ([6]; Aba clinical strains): 0.06 µg/mL (≈ 0.124 µM)
MIC90 ([6]; Aba clinical strains): 0.25 µg/mL (≈ 0.516 µM)
Minimum (MIC) ([6]; Aba clinical strains, MIC50/MIC90 in μg/ml, in µg/mL): 0.03
MIC ATCC19606 ([6]; Aba reference strain ATCC19606, MIC50/MIC90 in μg/ml): 0.06 µg/mL (≈ 0.124 µM)
AUC and Cmax versus dose (in words) ([7]; IV infusion and Oral dosing at 5, 10, 30 & 100 mg/kg doses in SD rats): Dose proportional increase
clearance (in words) ([7]; SD rats): moderate
half life (in words) ([7]; SD rats): moderate
oral bioavailability (in words) ([7]; SD rats): good
volume of distribution (in words) ([7]; SD rats): low
Cmax ([7]; 5 mg/kg, IV (1 h infusion), male SD rats): 2800 ± 970 ng/mL
Cmax ([7]; 10 mg/kg PO, male SD rats): 2580 ± 75 ng/mL
Cmax ([7]; 30 mg/kg, IV (1 h infusion), male SD rats): 25200 ± 610 ng/mL
Cmax ([7]; 100 mg/kg, IV (1 h infusion), male SD rats): 93400 ± 4400 ng/mL
Cmax ([7]; 150 mg/kg, IV (1 h infusion), male SD rats): 112000 ± 7580 ng/mL
Vd ([7]; male, 5 mg/kg, IV, read-out: Vd): 6.4 ± 1.07 L/kg
Vd ([7]; male, 5 mg/kg, IV, read-out: Vss): 1.09 ± 0.13 L/kg
Vd ([7]; male, 30 mg/kg, IV, read-out: Vd): 4.94 ± 1.8 L/kg
Vd ([7]; male, 30 mg/kg, IV, read-out: Vss): 0.62 ± 0.05 L/kg
Vd ([7]; male, 100 mg/kg, IV, read-out: Vd): 5.57 ± 0.56 L/kg
Vd ([7]; male, 100 mg/kg, IV, read-out: Vss): 0.69 ± 0.02 L/kg
Vd ([7]; male, 150 mg/kg, IV, read-out: Vd): 5.38 ± 1.1 L/kg
Vd ([7]; male, 150 mg/kg, IV, read-out: Vss): 0.73 ± 0.07 L/kg
bioavailability ([7]; male, 10 mg/kg): 33.3 ± 3.1%
bioavailability ([7]; male, 30 mg/kg): 66.8 ± 14.4%
bioavailability ([7]; male, 100 mg/kg): 38.4 ± 12.4%
bioavailability ([7]; male, 300 mg/kg): 24.2 ± 15.6%
AUC(0-inf) ([7]; male, 5 mg/kg, IV): 1870 ± 350 ng·h/mL
AUC(0-t) ([7]; male, 5 mg/kg, IV): 1870 ± 350 ng·h/mL
Tmax ([7]; male, 5 mg/kg, IV): 0.76 ± 0.02 h
half-life ([7]; male, 5 mg/kg, IV): 1.53 ± 0.07 h
clearance ([7]; male, 5 mg/kg, IV): 45.7 mL/min/kg
AUC(0-inf) ([7]; male, 10 mg/kg PO): 1240 ± 100 ng·h/mL
Tmax ([7]; male, 10 mg/kg PO): 0.25 h
half-life ([7]; male, 10 mg/kg PO): 1.84 ± 0.15 h
AUC(0-inf) ([7]; male, 30 mg/kg, IV): 21800 ± 150 ng·h/mL
AUC(0-t) ([7]; male, 30 mg/kg, IV): 21780 ± 150 ng·h/mL
Tmax ([7]; male, 30 mg/kg, IV): 1 h
half-life ([7]; male, 30 mg/kg, IV): 2.45 ± 0.78 h
clearance ([7]; male, 30 mg/kg, IV): 23 mL/min/kg
AUC(0-inf) ([7]; male, 30 mg/kg, PO): 7540 ± 1620 ng·h/mL
Cmax ([7]; male, 30 mg/kg, PO): 8500 ± 2400 ng/mL
Tmax ([7]; male, 30 mg/kg, PO): 0.5 h
half-life ([7]; male, 30 mg/kg, PO): 1.7 ± 0.5 h
AUC(0-inf) ([7]; male, 100 mg/kg, IV): 118000 ± 13600 ng·h/mL
AUC(0-t) ([7]; male, 100 mg/kg, IV): 118000 ± 13600 ng·h/mL
Tmax ([7]; male, 100 mg/kg, IV): 1 h
half-life ([7]; male, 100 mg/kg, IV): 4.53 ± 0.12 h
clearance ([7]; male, 100 mg/kg, IV): 14.2 mL/min/kg
AUC(0-inf) ([7]; male, 100 mg/kg, PO): 14400 ± 4600 ng·h/mL
Cmax ([7]; male, 100 mg/kg, PO): 9790 ± 1100 ng/mL
Tmax ([7]; male, 100 mg/kg, PO): 0.33 ± 0.14 h
half-life ([7]; male, 100 mg/kg, PO): 5.32 ± 2.1 h
AUC(0-inf) ([7]; male, 150 mg/kg, IV): 172000 ± 10700 ng·h/mL
AUC(0-t) ([7]; male, 150 mg/kg, IV): 172000 ± 10800 ng·h/mL
Tmax ([7]; male, 150 mg/kg, IV): 2 h
half-life ([7]; male, 150 mg/kg, IV): 4.24 ± 0.67 h
clearance ([7]; male, 150 mg/kg, IV): 14.5 mL/min/kg
AUC(0-inf) ([7]; male, 300 mg/kg, PO): 27200 ± 17500 ng·h/mL
Cmax ([7]; male, 300 mg/kg, PO): 11100 ± 3100 ng/mL
Tmax ([7]; male, 300 mg/kg, PO): 1 h
half-life ([7]; male, 300 mg/kg, PO): 2.2 h
MIC50 [8, 10]: 0.125 µg/mL (≈ 0.258 µM)
MIC90 [8, 10]: 0.5 µg/mL (≈ 1.03 µM)
Minimum (MIC) ([8]; Kpn clinical strains, MIC50/MIC90 in μg/ml): 0.06 µg/mL
MIC ATCC13883 ([8]; Kpn reference strain ATCC13883, MIC50/MIC90 in μg/ml): 0.06 µg/mL (≈ 0.124 µM)
MIC90 [9]: 0.25 to 1 µg/mL (≈ 0.516 to 2.06 µM)
